Experiments:
Format in all cases: cell-based
[1] = tested on: immortalized human HaCaT keratinocytes; experiment: Cell proliferation assay (MTT); conditions: 72 h; for Effect on HaCaT cell viability/proliferation (MTT), in words / Effect on HaCaT cell viability (MTT), in words: serum-free DMEM; for Effect on HaCaT cell viability/proliferation (MTT), in words: whole range 1–50 μg/mL, vs. control without peptide, triplicate; for Effect on HaCaT cell viability (MTT), in words: peptide at 50 μg/mL; for Concentration above which the conjugate is cytotoxic: MTT, cell type not named in the sentence (keratinocytes and fibroblasts tested)
Description: In our study two kind of cells were used: immortalized human HaCaT keratinocytes (DKFZ Heidelberg, Germany) and primary dermal fibroblasts obtained from 3 healthy donors. Both types of the used cell lines were grown in Dulbecco's modified Eagle's medium (DMEM) (Sigma–Aldrich, Germany), that contained […] of glucose, […] of L-glutamine, sodium pyruvate and sodium bicarbonate. Additionally, medium was supplemented with 10% of FCS (fetal calf serum, Sigma-Aldrich, Germany), 100 U/mL of penicillin and 100 μg/mL streptomycin (Sigma-Aldrich, Germany). The cells were grown in culture dishes (BD, USA) under standard conditions in a humidified atmosphere with 5% CO2 at 37°C and medium was changed every 2 days.
The fibroblasts and keratinocytes were seeded at density of 4500 and 6000 cells per well, respectively, into 96-well plates suspended in a medium supplemented with 10% of FCS. After 24 h the media were exchanged with serum- and antibiotic- free DMEM and tested peptides dissolved in PBS were added yielding final concentration ranging from 1 to 50 μg/mL. Cells were incubated for the next 24 hours, when the medium was exchanged again and fresh portion of peptides (used at the same concentrations as previously) was added. Incubation was continued for the next 48 hours (the overall time of cell exposition to peptide was 72 h). At the end of the experiment cells were treated with 20 μL of MTT (5 mg/mL in PBS). After 3 h at 37°C under 5% CO2 medium was discarded and replaced by 6mM HCl in isopropanol. After 15 min when the purple crystals of formazan were fully solubilized, absorbance was read at 570 nm with a plate reader. The optical density reflects the level of cell viability as MTT is converted in purple formazan product only in the presence of viable mitochondria of the living cells.
Fig 1 Pro-proliferative activity of the tested peptides towards human keratinocytes (A) and fibroblasts (B). Cells were incubated for 72 hours in serum-free DMEM medium in the presence of peptides applied at concentrations of 1,10, 25 and 50 μg/mL, respectively. The data represents results of MTT assay expressed as the percentage of the cell viability in comparison to their control sample (cells incubated in serum-free DMEM without tested peptides), additional positive control corresponds to the cells incubated in the presence of 10% FCS. All experiments were performed independently in triplicate. *P < 0.05, **P < 0.01, ***P < 0.001 vs. control.
In order to evaluate a long-term effect of peptides, experiments were carried out for 72 hours. Before addition of the tested compounds, the cell medium was exchanged for the fresh one not containing any serum or antibiotic.

[2] = tested on: Candida parapsilosis (CCM 8260); conditions: broth microdilution, Mueller-Hinton broth + 2% glucose, about 2.5 x 10^3 CFU/mL, 37°C, 24 h, absorbance 590 nm, at least triplicate
Excerpt: (§1) Escherichia coli (PCM 2057), Staphylococcus aureus (PCM 2054), Staphylococcus epidermidis (PCM 2118), Pseudomonas aeruginosa (PCM 499) were obtained from Polish Collection of Microorganisms. Fungi strains Candida albicans (CCM 8186), Candida glabrata (CCM 8270), Candida parapsilosis (CCM 8260), Candida krusei (CCM 8271), Candida tropicalis (CCM 8264) were acquired from Czech Collection of Microorganisms.
(§2) Luria-Bertani broth (LB) and Sabouraud Dextrose broth (SB) (Biocorp, Poland) were used for cultivation of bacteria and fungi strains, respectively. Antimicrobial activity of peptides was analyzed through determination of MIC (minimal inhibitory concentration) parameter according to the standard microdilution technique performed on 96-well plates. Mueller-Hinton broth (MHB) was used as the working medium for all bacterial strains, while in case of fungi it was additionally supplemented with 2% glucose.
(§3) Briefly, inoculum was prepared from freshly grown cultures of microorganisms being at their exponential phase of growth. Each well of 96-well plates containing 100 μL of serially diluted peptides in PBS (phosphate buffer saline) at concentration ranging from 2 to 250 μg/mL were inoculated with 100 μL of approximately 10^5 CFU/mL of bacterial suspension or about 2.5 x 10^3 CFU/mL of fungi suspended in a double concentrated Mueller-Hinton broth (supplemented with 2% glucose for Candida spps.). Then plates were incubated overnight at 37°C and absorbance was read at 590 nm after 24 h. Cultures without peptide were treated as positive control, while uninoculated Mueller-Hinton broth was defined as negative control. All measurements were run at least in triplicate.
(§4) All peptides were screened against the wide range of microorganisms, including Gram-negative, Gram-positive bacteria and fungi from Candida species (Table 2). Broth microdilution method for MIC determination was used as a standard procedure. All assays were performed on liquid Mueller-Hinton broth, which was additionally supplemented with 2% glucose when fungicidal activity towards Candida spps. was analyzed.

[3] = tested on: Candida glabrata (CCM 8270); conditions: broth microdilution, Mueller-Hinton broth + 2% glucose, about 2.5 x 10^3 CFU/mL, 37°C, 24 h, absorbance 590 nm, at least triplicate
Excerpt: as §1, §2, §3, §4

[4] = tested on: Escherichia coli (PCM 2057); conditions: broth microdilution, Mueller-Hinton broth, approximately 10^5 CFU/mL, 37°C, 24 h, absorbance 590 nm, at least triplicate
Excerpt: as §1, §2, §3, §4

[5] = tested on: Candida krusei (CCM 8271); conditions: broth microdilution, Mueller-Hinton broth + 2% glucose, about 2.5 x 10^3 CFU/mL, 37°C, 24 h, absorbance 590 nm, at least triplicate
Excerpt: as §1, §2, §3, §4

[6] = tested on: Candida tropicalis (CCM 8264); conditions: broth microdilution, Mueller-Hinton broth + 2% glucose, about 2.5 x 10^3 CFU/mL, 37°C, 24 h, absorbance 590 nm, at least triplicate
Excerpt: as §1, §2, §3, §4

[7] = tested on: Pseudomonas aeruginosa (PCM 499); conditions: broth microdilution, Mueller-Hinton broth, approximately 10^5 CFU/mL, 37°C, 24 h, absorbance 590 nm, at least triplicate
Excerpt: as §1, §2, §3, §4

[8] = tested on: Candida albicans (CCM 8186); conditions: broth microdilution, Mueller-Hinton broth + 2% glucose, about 2.5 x 10^3 CFU/mL, 37°C, 24 h, absorbance 590 nm, peptide 2 to 250 μg/mL, at least triplicate
Excerpt: as §1, §2, §3, §4

[9] = tested on: Staphylococcus aureus (PCM 2054); conditions: broth microdilution, Mueller-Hinton broth, approximately 10^5 CFU/mL, 37°C, 24 h, absorbance 590 nm, at least triplicate
Excerpt: as §1, §2, §3, §4

[10] = tested on: Staphylococcus epidermidis (PCM 2118); conditions: broth microdilution, Mueller-Hinton broth, approximately 10^5 CFU/mL, 37°C, 24 h, absorbance 590 nm, at least triplicate
Excerpt: as §1, §2, §3, §4

[11] = tested on: B. subtilis; conditions: broth microdilution, Mueller-Hinton broth, approximately 10^5 CFU/mL, 37°C, 24 h, absorbance 590 nm, at least triplicate
Description: as §2, §3, §4

[12] = tested on: B. cereus; conditions: broth microdilution, Mueller-Hinton broth, approximately 10^5 CFU/mL, 37°C, 24 h, absorbance 590 nm, at least triplicate
Description: as §2, §3, §4

In the case of “IKKILSKIKKLL-NH2 [DK5, Lys-rich derivative of amphibian AMP temporin-1CEb, …-NH2, reference compound]”, the “Effect on HaCaT cell viability/proliferation (MTT), in words” value [1] is reported as “negative dose-response relationship”, the “MIC C. parapsilosis” value [2] is reported as 31.3 µg/mL and the “MIC C.glabrata” value [3] is reported as 62.5 µg/mL. For the same substance, the “MIC E.coli” value [4] was over 125 µg/mL, the “MIC C.krusei” value [5] was 7.8 µg/mL and the “MIC C.tropicalis” value [6] was under 2 µg/mL. The “MIC P. aeruginosa” value [7] was 50 µg/mL, the “MIC C. albicans” value [8] was 31.3 µg/mL and the “MIC S.aureus” value [9] was over 125 µg/mL. For the same substance, the “MIC S. epidermidis” value [10] was 7.8 µg/mL, the “MIC B. subtilis” value [11] was 15.6 µg/mL and the “MIC B. cereus” value [12] was over 125 µg/mL.
For “YAGFLR-PEG-IKKILSKIKKLL-NH2 [DAL-PEG-DK5, conjugate of dalargin and DK5 joined by PEG-linker]”, the “Effect on HaCaT cell viability (MTT), in words” value [1] was “lowest cell viability”, the “Effect on HaCaT cell viability/proliferation (MTT), in words” value [1] was “negative dose-response relationship” and the “Concentration above which the conjugate is cytotoxic” value [1] was “higher than 25 μg/mL”. For the same substance, the “MIC C. parapsilosis” value [2] was 2.0 µg/mL, the “MIC C.glabrata” value [3] was 125 µg/mL and the “MIC E.coli” value [4] was 25 µg/mL. For the same substance, the “MIC C.krusei” value [5] was 3.9 µg/mL, the “MIC C.tropicalis” value [6] was under 2 µg/mL and the “MIC P. aeruginosa” value [7] was 25 µg/mL. For the same substance, the “MIC C. albicans” value [8] was 25 µg/mL, the “MIC S.aureus” value [9] was 50 µg/mL and the “MIC S. epidermidis” value [10] was 7.8 µg/mL. The “MIC B. subtilis” value [11] was 2.0 µg/mL and the “MIC B. cereus” value [12] was 25 µg/mL.
For “YAGFLR-PEG-IKKILSKIKKLLK-NH2 [DAL-PEG-LK6, conjugate of dalargin and LK6 joined by PEG-linker]”, the “Effect on HaCaT cell viability (MTT), in words” value [1] was “cytotoxic effect”, the “Concentration above which the conjugate is cytotoxic” value [1] was “higher than 25 μg/mL” and the “MIC C. parapsilosis” value [2] was 2.0 µg/mL. For the same substance, the “MIC C.glabrata” value [3] was over 125 µg/mL, the “MIC E.coli” value [4] was 25 µg/mL and the “MIC C.krusei” value [5] was 7.8 µg/mL. The “MIC C.tropicalis” value [6] was 3.9 µg/mL, the “MIC P. aeruginosa” value [7] was 25 µg/mL and the “MIC C. albicans” value [8] was 25 µg/mL. For the same substance, the “MIC S.aureus” value [9] was 25 µg/mL, the “MIC S. epidermidis” value [10] was 7.8 µg/mL and the “MIC B. subtilis” value [11] was 7.8 µg/mL. For the same substance, the “MIC B. cereus” value [12] was 12.5 µg/mL.

From publication PMC4608580, “Synthesis and Evaluation of Biological Activity of Antimicrobial – Pro-Proliferative Peptide Conjugates” (PLoS ONE, 2015)
